From patent US9150571B2, “Crystalline forms of fused amino pyridines as HSP90 inhibitors” (Debiopharm International SA, priority 2011, dated 2015)
In brackets after ≈: the same amount, converted by molar mass.

Key:
Format in all cases: physicochemical
[1] = Equilibrium solubility in buffer, HPLC
Experimental: Approximately 25 mg of test substance was weighed into glass test tubes. The relevant volume of buffer solution (10 mL) was added to each vessel. The tests were performed in duplicate. The vessels were lightly sealed and agitated at 25°C. in a shaking thermostatted water bath protected from light. Sampling was performed after 24 hours and thereafter not less than 20 hours between sample time points. Sampling was performed by filtration of a portion of the test slurry through a 0.2 μm filter and dilution in appropriate media for HPLC analysis.
Equilibrium solubility was determined by HPLC by using:
[formula] where the Standard Purity was taken as 95%.
Buffer pH 7.0 samples were prepared by removing approximately 1 mL of the solution from the appropriate glass test tube and filtering into a HPLC vial using a PTFE 0.2 μm syringe filter. The concentration of the Compound 1 in the filtrate was determined by comparison with data of the standard sample (about 0.25 mg/g).
Buffer pH 5.0 samples were prepared by removing approximately 1 mL of the solution from the appropriate glass test tube and filtering into a HPLC vial using a PTFE 0.2 μm syringe filter. The filtered solution was diluted by a factor of 5 and approximately 1 mL of this solution was added into a HPLC vial for analysis. The concentration of the Compound 1 in the filtrate was determined by comparison with data of the standard sample (about 0.25 mg/g).
At the end of the solubility study, the solids were isolated from the experimental slurries, filtered, dried and analyzed by XRPD in order to determine the physical form.
The solubility of Compound 1 Form I was determined by two different methods. The EP (European Pharmacopoeia) method is an aliquot addition method which gives a rough assessment of kinetic solubility. The equilibrium method requires the suspension of solid for an extended period in the dissolving medium. […] The EP method indicated solubility of Compound 1 Form I to be insoluble in water and be soluble in ethanol at 33-100 mg/ml.
The concentration of the samples was assessed by HPLC.

[2] = Solubility, EP (European Pharmacopoeia) aliquot addition method; conditions: 25° C., EP method (kinetic solubility)
Experimental: All samples to be tested were passed through number 180 and number 125 sieves to ensure that they were finely powdered prior to testing, i.e. not less than 95% of sample mass passed through a […] sieve and not more than 40% passed through a 38 μm sieve.
The vial containing the test material and chosen solvent was shaken on a vortex mixer for 1 minute. The vial was placed in a water bath maintained at 25° C.±0.5° C. for 15 minutes. If particles were still remaining, the vial was shaken again for 1 minute using the vortex mixer and returned to the water bath for a further 15 minutes.
Approximately 100 mg of the test material was weighed into a vial and 0.1 mL of the chosen solvent was added. This was treated as described in the procedure above. […] After each addition of solvent the contents of the vial were treated as described in the dissolving procedure. […] After the dissolving procedure was complete, the solubility of the material was visually determined. […] Results obtained were reported.
The solubility of Compound 1 Form I was determined by two different methods. The EP (European Pharmacopoeia) method is an aliquot addition method which gives a rough assessment of kinetic solubility. The equilibrium method requires the suspension of solid for an extended period in the dissolving medium. […]

[3] = Interconversion experiments in ethyl acetate suspension (thermodynamic stability of forms), XRPD; conditions: for temperature range in which the form is the most stable polymorph (Form I/II transition): from interconversion experiments at 5, 10, 15, 21 & 60° C.
Experimental: Interconversion experiments were carried out using Forms I, II and III at 5° C., 10° C., 15° C., 21° C. and 60° C. in ethyl acetate. Suspensions of approximately equivalent amounts (about 75 mg) of each form in ethyl acetate (1.2 mL) were prepared and agitated at different temperatures. The slurries were stirred and sampled periodically (200 μL aliquot) after 30 mins and over the period of 10 days or until when near complete or complete conversion had occurred. The sampled aliquot was filtered, air dried and analyzed by XRPD.
In solvent mediated conversions, seeds of all Forms are present and there is no activation energy barrier to interconversion. This technique is used to identify the ‘true’ transition temperature and the thermodynamic relationship between the Forms. In order to determine the order of stability between each individual form interconversion experiments were performed using suspensions of pairs of each form in ethyl acetate at 5, 10 and 15° C. and suspensions of all Forms together at 21° C. and 60° C. The stirred suspensions of Forms I, II and III were sampled after 0.5 hr (t0), after 1, 2 and 3 days (t1-3) and 6 and 10 days if required.

[4] = Dynamic vapour sorption (DVS) hygroscopicity
Experimental: Dynamic Vapour Sorption (DVS) was performed using a Hiden Analytical Instruments IGAsorp Vapour Sorption Balance. Approximately 15 mg of sample was placed into a wire-mesh vapour sorption balance pan, loaded into the IGAsorp vapour sorption balance and held at 25° C.±0.1° C. The sample was subjected to a step profile from 0 to 90% RH at 10% increments, followed by desorption from […] to 0% RH at 10% increments. The equilibrium criterion was set to 99.5% step completion within a minimum of 60 minutes and a maximum of 10 hours for each increment. The weight change during the sorption cycle was monitored, allowing for the hygroscopic nature of the sample to be determined. The data collection interval was in seconds.
DVS analysis was used to investigate the hygroscopicity of Compound 1 Form I (FIG. 11). […] The overall weight gain up to 95% RH was 0.06% and weight gained up to 80% RH only 0.08%.
After completion of the cycle, the sample was removed from the instrument and no weight change was observed.

[5] = Intrinsic dissolution rate (IDR); conditions: pH 5.0 USP buffer, 37° C., 50 RPM; Form I from one non capped pellet
Experimental: For intrinsic dissolution studies (IDR) an isocratic HPLC method with a shorter run time (10 mins) was used due to the high number of sample analyses required (Table 2).
Distek 8 mm intrinsic dissolution apparatus was used for the study. The three fixed screws on the surface plate were inserted through the three holes on the die and fastened with the supplied washers and nuts. 100 mg of test material was placed in the die cavity. The punch was inserted into the cavity and compressed, with the aid of a bench top hydraulic press for 30 sec at 1 ton pressure. The surface plate was disconnected from the die to expose a compact pellet of 0.5 cm^2 surface area. The pellets were checked for any breaks and cracks on the surface. Only the pellets with flat even surface with no irregularities were used for the study. The Viton gasket was placed around the threaded shoulder of the die and a polypropylene cap was screwed on to the threads. The assembly was immersed, pellet side up, into the bottom of the dissolution vessel (flat bottom) containing dissolution medium at 37° C. The media is degassed under helium purge for 15 min prior to use.
• Dissolution media: pH 5.0 USP buffer • Vessel volume: 900 mL • Rotation speed: 50 RPM • Temperature: 37° C.±0.5° C. • Sampling time points: 30, 60, 90, 120 and 150 mins • Sample size: 1 mL • Sample analysis: By HPLC (conditions in Table 2 above)
Three samples of Form I, II, III and trihydrate were checked for IDR in USP pH 5.0 buffer. The samples were checked for any changes in their surface after dropping into the dissolution medium. […] The particles relax on contact with water during dissolution, causing capping of the surface. So IDR was calculated for Form I based on drug release from one non capped pellet. […] The samples were collected manually through a cannula fitted with 10 μm inline filters. The samples collected from dissolution run were analyzed by HPLC.
The average of all three runs was used to plot and calculate the IDR of samples, with the exception of Form I. The average dissolution profile for each Form is shown in FIG. 12.
After the dissolution test, the remaining portion of the pressed discs were dried in air and examined by XRPD.

[6] = Critical water activity for trihydrate formation in acetone/water; conditions: 21° C.
Experimental: Experiments to determine the critical water activity level with respect to trihydrate formation were performed in acetone/water. Different % v/v ratios of water in acetone were used for suspensions at 21° C. […] Using the Wilson VLE model, this equates to 0.38-0.49 or 0.35-0.44 using the UNIFAC model. This provides useful information for process chemists and formulators in later development.

**Q.** Which results are given for CN(C)c1cc2c(cc1Sc1nc3c(N)nccc3n1CCNCC(C)(C)C)OCO2 [Compound 1 Form I]?
**A.** MEAN SOLUBILITY pH 5.1 ([1]; day 1, buffer pH 5.1, 25°C): 1.101 MG/G; MEAN SOLUBILITY pH 7.0 ([1]; day 1, buffer pH 7.0, 25°C): 0.074 MG/G; MEAN SOLUBILITY pH 5.1 ([1]; day 2, buffer pH 5.1, 25°C): 0.735 MG/G; MEAN SOLUBILITY pH 7.0 ([1]; day 2, buffer pH 7.0, 25°C): 0.043 MG/G; MEAN SOLUBILITY pH 5.1 ([1]; day 3, buffer pH 5.1, 25°C): 0.587 MG/G; MEAN SOLUBILITY pH 7.0 ([1]; day 3, buffer pH 7.0, 25°C): 0.031 MG/G; MEAN SOLUBILITY pH 5.1 ([1]; day 4, buffer pH 5.1, 25°C): 0.507 MG/G; MEAN SOLUBILITY pH 7.0 ([1]; day 4, buffer pH 7.0, 25°C): 0.025 MG/G; solubility at 15 min ([2]; organic solvent or mixture, ethanol): 33 to 100 mg/mL (≈ 74.6 to 226 mM); solubility in water (EP method) ([2]; water): insoluble; thermodynamically most stable form ([3]; 21° C., ethyl acetate suspension of Forms I, II and III): thermodynamically most stable form; thermodynamically most stable form ([3]; 60° C., ethyl acetate suspension of Forms I, II and III): thermodynamically most stable form; temperature range in which the form is the most stable polymorph (Form I/II transition) [3]: above 18±2 °C; weight gained up to 80% RH ([4]; DVS, 25° C., up to 80% RH): 0.08%; overall weight gain up to 95% RH ([4]; DVS, 25° C., up to 95% RH): 0.06%; hygroscopicity classification (European Pharmacopoeia) ([4]; weight increase at 80% RH (25° C.)): non-hygroscopic; IDR [5]: 0.101 mg cm^−2 min^−1

**Q.** Which IDR [5] does the source give for CN(C)c1cc2c(cc1Sc1nc3c(N)nccc3n1CCNCC(C)(C)C)OCO2 [Form III] here?
**A.** 0.266 mg cm^−2 min^−1

**Q.** Which “thermodynamically most stable form” value ([3]; 5° C., ethyl acetate suspension of pairs of forms) does the source give for CN(C)c1cc2c(cc1Sc1nc3c(N)nccc3n1CCNCC(C)(C)C)OCO2 [Form II] here?
**A.** thermodynamically most stable form

**Q.** What about the “thermodynamically most stable form” value ([3]; 10° C., ethyl acetate suspension of pairs of forms) of the same molecule?
**A.** thermodynamically most stable form

**Q.** What about the “thermodynamically most stable form” value ([3]; 15° C., ethyl acetate suspension of pairs of forms) of the same molecule?
**A.** thermodynamically most stable form

**Q.** What about the “temperature range in which the form is the most stable polymorph (Form I/II transition)” value [3] of the same molecule?
**A.** lower than 18±2 °C

**Q.** What about the IDR [5] of the same molecule?
**A.** 0.098 mg cm^−2 min^−1

**Q.** Which IDR [5] does the source give for CN(C)c1cc2c(cc1Sc1nc3c(N)nccc3n1CCNCC(C)(C)C)OCO2 [Trihydrate] here?
**A.** 0.184 mg cm^−2 min^−1

**Q.** What about the “critical water activity, UNIFAC model” value ([6]; UNIFAC model) of the same molecule?
**A.** 0.35-0.44

**Q.** And the “critical water activity, Wilson VLE model” value ([6]; Wilson VLE model)?
**A.** 0.38-0.49
